Measured values as given in patent US6825227B2, “Method for fighting against arthropods destructive of crops and compositions therefor” (priority 2000, dated 2004).

Experiments:
Assay type in all cases: in vivo
rice crop = experiment: Process Example D: yield of a rice crop with control of the insects which ravage it; details: versus plot without treatment
Description: This process example according to the invention gives an illustration of the improvement in the yield of a rice crop obtained concomitantly with the control of the insects which ravage this rice crop.
In this treatment Process Example according to the invention, the yield of the crop was evaluated, along with the improvement in this yield obtained by carrying out the said process according to the invention simultaneously using fipronil as compound (A) and cypermethrin as compound (B).
(§1) The operating and measuring conditions are reproduced and adapted from Process Example B.
The application rates and the results are collated in Table 4.

Nilaparvata lugens [1] = experiment: Process Example F: variation in number of Nilaparvata lugens after treatment
Excerpt: (§2) This process example gives an illustration of a process according to the invention which is useful for insecticidal treatment against Nilaparvata lugens.
as §1
The active materials used, their application rates and the results obtained are collated in Table 6.

Nilaparvata lugens [2] = experiment: Process Example C: insecticidal treatment against Nilaparvata lugens
Excerpt: (§3) The operating conditions were reproduced and adapted from those of Process Example A.
(§4) The active material(s) was(were) applied to the plots 25 days after planting out.
(§5) The rates of active materials applied and the results obtained 14 days after application are collated in Table 2.
This process example gives an illustration of a process according to the invention which is useful for insecticidal treatment against Nilaparvata lugens. The operating and measuring conditions are reproduced and adapted from Process Example B.
The application rates and the results are collated in Table 3.

Nephotettix apicalis [3] = experiment: Process Example B: insecticidal treatment of a rice crop against leafhoppers; details: applied 25 days after planting out, 14 days after application
Description: This process example gives an illustration of a process according to the invention which is useful for insecticidal treatment against leafhoppers and in particular against Nephotettix apicalis.
This process according to the invention was carried out for the treatment of a rice crop.
as §3
The active materials used were fipronil and deltamethrin in a formulation in the form of granules according to Composition Example A.
as §4, §5

Tryporyza incertulas [4] = experiment: Process Example A: treatment of rice plots against yellow rice stem borer, count of dead plant cores; details: applied 7 days after planting out
Description: The treatment process carried out was a treatment process against yellow rice stem borer or Tryporyza incertulas during the infestation of a rice crop. For the comparison of the process according to the invention with known insecticidal treatment processes, four plots were prepared in a similar manner.
The first is left without treatment, the second is treated with fipronil as active material, the third with deltamethrin and the fourth with fipronil and deltamethrin in accordance with the process according to the invention.
After sowing and then growing, the rice seedlings are transplanted at the three- to four-leaf stage.
The various active materials were then applied 7 days after planting out.
The formulation used in this process according to the invention is identical to that of Composition Example A.
The application rates and the results obtained are collated in Table 1.
(§6) The measurement was carried out by counting the number of rice plant cores that were dead due to attack by the damaging insects treated, i.e. Tryporyza incertulas; thus, the smallest number is obtained after carrying out the process according to the invention, while the untreated plots or plots treated in a known manner give substantially larger numbers.

Nephotettix apicalis [5] = experiment: Process Example G: variation in number of Nephotettix apicalis after treatment
Excerpt: This process example gives an illustration of a process according to the invention which is useful for insecticidal treatment against Nephotettix apicalis. The operating and measuring conditions are reproduced and adapted from Process Example B.
The active materials used, their application rates and the results obtained are collated in Table 7.

Nilaparvata lugens [6] = experiment: Process Example E: variation in number of Nilaparvata lugens after treatment
Excerpt: as §2, §1
The active materials used, their application rates and the results obtained are collated in Table 5.

Tryporyza incertulas [7] = experiment: Process Example J: treatment of a rice crop against yellow rice stem borer, variation in dead plant cores; details: fipronil 25 g/ha
Description: The treatment process used was a process of treatment against yellow rice stem borer or Tryporyza incertulas during the infestation of a rice crop.
as §1
The active materials used, their application rates and the results obtained are collated in Table 10.
as §6, with “greatest degree of reduction” for “smallest number”, “whereas” for “while”, “more mediocre degrees.” for “larger numbers.”

Scotinophara lurida = experiment: Process Example K: treatment of a rice crop against Scotinophara lurida; details: fipronil 25 g/ha
Excerpt: The treatment process used was a process of treatment against Scotinophara lurida during the infestation of a rice crop.
as §1
The active materials used, their application rates and the results obtained are collated in Table 11.

Nilaparvata lugens [8] = experiment: Process Example H: variation in number of Nilaparvata lugens after treatment; details: fipronil 25 g/ha
Excerpt: as §2, §1
The active materials used, their application rates and the results obtained are collated in Table 8.

Nilaparvata lugens [9] = experiment: Process Example I: variation in number of Nilaparvata lugens after treatment; details: fipronil 25 g/ha
Excerpt: as §2, §1
The active materials used, their application rates and the results obtained are collated in Table 9.

## CC1(C)C(C=C(Cl)Cl)C1C(=O)OC(C#N)c1cccc(Oc2ccccc2)c1 [cypermethrin, (R,S)-α-cyano-3-phenoxybenzyl (1RS,3RS;1RS,3SR)-3-(2,2-dichlorovinyl)-2,2-dimethylcyclopropanecarboxylate]
Rice crop; cypermethrin 12.5 g/ha
  Improvement in the yield of the plot (%): 78%
Nilaparvata lugens [1]; cypermethrin 12.5 g/ha
  Degree of variation in the number of damaging insects 3 days after application: −27%
  Degree of variation in the number of damaging insects 7 days after application: +13%
Nilaparvata lugens [2]; cypermethrin 12.5 g/ha
  Insecticidal efficacy: 21%

## CC1(C)[C@H](C(=O)O[C@H](C#N)c2cccc(Oc3ccccc3)c2)[C@@H]1C=C(Br)Br [deltamethrin, (S)-α-cyano-3-phenoxybenzyl (1R,3R)-3-(2,2-dibromovinyl)-2,2-dimethylcyclopropanecarboxylate]
Nephotettix apicalis [3]; deltamethrin 6 g/ha
  Insecticidal efficacy: 6%
Tryporyza incertulas [4]; deltamethrin 6 g/ha
  Proportion of dead plant cores found: 66%
Nephotettix apicalis [5]; deltamethrin 6 g/ha
  Degree of variation in the number of damaging insects 1 day after application: −13%
  Degree of variation in the number of damaging insects 3 days after application: +25%
  Degree of variation in the number of damaging insects 7 days after application: +75%
Nilaparvata lugens [6]; deltamethrin 6 g/ha
  Degree of variation in the number of damaging insects 3 days after application: +27%
  Degree of variation in the number of damaging insects 7 days after application: 0%

## N#Cc1nn(-c2c(Cl)cc(C(F)(F)F)cc2Cl)c(N)c1[S+]([O-])C(F)(F)F (stereo not shown) [fipronil, 5-amino-3-cyano-1-(2,6-dichloro-4-trifluoromethylphenyl)-4-trifluoromethylsulphinylpyrazole]
Nephotettix apicalis [3]; fipronil 25 g/ha
  Insecticidal efficacy: 16%
Rice crop; fipronil 10 g/ha
  Improvement in the yield of the plot (%): 188%
Tryporyza incertulas [4]; fipronil 10 g/ha
  Proportion of dead plant cores found: 56%
Tryporyza incertulas [7]
  Degree of variation in the number of dead plant cores: −35%
Nephotettix apicalis [5]; fipronil 25 g/ha
  Degree of variation in the number of damaging insects 1 day after application: +50%
  Degree of variation in the number of damaging insects 3 days after application: +83%
  Degree of variation in the number of damaging insects 7 days after application: +183%
Scotinophara lurida; 1 day
  Degree of variation in the number of damaging insects 1 day after treatment: −43%
Scotinophara lurida; 3 days
  Degree of variation in the number of damaging insects 3 days after treatment: −67%
Scotinophara lurida; 14 days
  Degree of variation in the number of damaging insects 14 days after treatment: −45%
Nilaparvata lugens [8]; 1 day
  Degree of variation in the number of damaging insects 1 day after application: −15%
Nilaparvata lugens [8]; 3 days
  Degree of variation in the number of damaging insects 3 days after application: −8%
Nilaparvata lugens [8]; 7 days
  Degree of variation in the number of damaging insects 7 days after application: −16%
Nilaparvata lugens [8]; 14 days
  Degree of variation in the number of damaging insects 14 days after application: +40%
Nilaparvata lugens [6]; fipronil 25 g/ha
  Degree of variation in the number of damaging insects 3 days after application: +33%
  Degree of variation in the number of damaging insects 7 days after application: +11%
Nilaparvata lugens [9]
  Degree of variation in the number of damaging insects 7 days after application: +19%
Nilaparvata lugens [1]; fipronil 25 g/ha
  Degree of variation in the number of damaging insects 3 days after application: +33%
  Degree of variation in the number of damaging insects 7 days after application: +11%
Nilaparvata lugens [2]; fipronil 10 g/ha
  Insecticidal efficacy: 78%
